Entries after “also recorded” stand apart in the source; their conditions may differ.
How the values were obtained:
HCC2429 cells = assay: NMC HCC2429 cell proliferation assay (CellTiter-Glo); assay type: cell-based; conditions: Homo sapiens; HCC2429, CTG at 96h
Description: NMC HCC2429 Cell Proliferation Assay • HCC2429 cells were plated into a 96-well plate (10,000 cells/well). Compounds or control vehicle (DMSO) were added at indicated concentrations. Compound-treated HCC2429 cells were analyzed for cell density at 96h using CellTiter-Glo® (CTG) reagent (Promega).

C4-2AR-WT cells, AR(+) = assay: CRPC cell proliferation assay (CellTiter-Glo), C4-2AR-WT; assay type: cell-based; conditions: CTG at 96h
Description: (§1) Castrate-Resistant Prostate Cancer (CRPC) Cell Proliferation Assay • Cells were seeded into 96-well plates at 2,000-10,000 cells/well in 100 uL medium. Four AR(+) cell lines (LnCaP, C4-2 (parental), C4-2AR-WT and C4-2AR—F876L) and one AR(−) cell line (DU-145) were studied. Compound treated cells were analyzed for cell density at 96h, using CellTiter-Glo® (CTG) reagent (Promega).

OPM-2 cells = assay: OPM-2 cell proliferation assay (CellTiter-Glo); assay type: cell-based
Description: (§2) MM1.S (dexamethasone sensitive) and OPM-2 cells were purchased from ATCC and maintained in RPMI-1640 medium with 10% fetal bovine serum at 37 degrees, 5% CO2. Cells were seeded at 10,000 cells/well in 100 uL medium. The following day compounds or control vehicle (DMSO) were added at indicated concentrations in 10 ul volume. Compound treated OPM-2 cells and MM1.S cell were analyzed for cell density at 72h and 96h, respectively, using CellTiter-Glo® (CTG) reagent (Promega). The CTG assay measures the amount of ATP present, which indicates the number of viable cells in culture.

[1] = tested on: CRPC cell lines (LnCaP, C4-2, C4-2AR-WT, C4-2AR-F876L, DU-145); assay: CRPC cell proliferation assay, summary over the cell lines; assay type: cell-based; conditions: AR(+) cell lines, CTG at 96h
Description: Castrate-Resistant Prostate Cancer (CRPC) Cell Proliferation Assay • Cells were seeded into 96-well plates at 2,000-10,000 cells/well in 100 uL medium. Four AR(+) cell lines (LnCaP, C4-2 (parental), C4-2AR-WT and C4-2AR—F876L) and one AR(−) cell line (DU-145) were studied. Compound treated cells were analyzed for cell density at 96h, using CellTiter-Glo® (CTG) reagent (Promega). […] Example 10 and IBET-151 BET had submicromolar IC50 values in the AR(+) cell lines. The inhibitors maintained potency in C4-2 cells engineered to express wild type (WT) AR receptor (C4-2-AR-WT), as well as cells engineered to express the F876L mutation (C4-2-AR-F876L) that confers resistance to androgen receptor (AR) antagonists.

MM1.S cells = assay: MM1.S cell proliferation assay (CellTiter-Glo); assay type: cell-based
Description: as §2

[2] = tested on: C4-2 (parental) cells, AR(+); assay: CRPC cell proliferation assay (CellTiter-Glo), C4-2; assay type: cell-based; conditions: CTG at 96h
Description: as §1

[3] = tested on: C4-2AR-F876L cells, AR(+); assay: CRPC cell proliferation assay (CellTiter-Glo), C4-2AR-F876L; assay type: cell-based; conditions: CTG at 96h
Description: as §1

[4] = tested on: c-MYC and MYB expression in MM1.S cells; assay: Biomarker analysis in MM1.S cells (RT-PCR, Western blot); assay type: cell-based
Description: MM1.S cells (1,000,000 cells) were seeded in […] in 10 mL medium. On the following day cells were treated with indicated compounds for 0, 2, 4, 6, 8, 16, and 24 hours. Cells were collected, washed in PBS, and split for western blot and RNA analysis. For western blot, cells were lysed in RIPA buffer and 30 ug protein was loaded on a 4-12% bis-tris gel under denaturing conditions and transferred to nitrocellulose. Blots were probed with primary antibodies for c-MYC (Cell Signaling #9402) and GAPDH (Cell Signaling #2118) diluted at 1:1000 and then secondary antibodies anti-mouse 680 (LiCor) and anti-rabbit 800 (Licor) and imaged on a LiCor reader. For gene expression analysis, total RNA was prepared using Qiagen total RNA kit (Qiagen) and cDNA was prepared from 100 ng RNA (high capacity cDNA kit; Applied Biosystems). Relative gene expression was analyzed on an Applied Biosystem 7900 qPCR thermocycler using gene expression assays for MYC (Hs00153408_m1), MYB (Hs00920556_m1), and GAPDH (Hs02758991_g1). Relative gene expression is calculated relative to DMSO and normalized to GAPDH expression.

BRD4 BD1 = target: T1, BRD4 BD1 (Homo sapiens, UniProt O60885); assay: BRD4 BD1 Fluorescence Polarization (FP) competition binding assay; conditions: BRD4 BD1 40 nM, probe PFI-411FP 2 nM
T1 construct: His-tagged BRD4 BD1 (44-160); made in house
Summary of the method: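 BRD4 BD1 (40 nM) preincubated 15 min at 20° C. with compound (120 to 0.0012 μM) in HEPES pH 7.4 with 0.08% BSA, then 2 nM PFI-411FP tracer added for 60 min. Fluorescence polarization read (ex 620/em 688 nm); IC50 from four-parameter fit, converted to Ki via Nikolovska-Coleska equation.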

DU-145 cells, AR(−) = assay: CRPC cell proliferation assay (CellTiter-Glo), DU-145; assay type: cell-based; conditions: CTG at 96h
Description: as §1

[5] = 0.5 uM, RT-PCR time-course 2 to 24 hours

CCC(=O)N(C)c1ccc2nc(NCCC(=O)O)c(=O)n([C@@H](CC)c3ccccc3)c2n1 [Example 10, N-{6-[methyl(propanoyl)amino]-3-oxo-4-[(1S)-1-phenylpropyl]-3,4-dihydropyrido[2,3-b]pyrazin-2-yl}-beta-alanine]
IC50 (HCC2429 cells): 47 nM
IC50 (C4-2AR-WT cells, AR(+)): 500 nM
Max % Inh (C4-2AR-WT cells, AR(+)): 85%
IC50 (OPM-2 cells; Homo sapiens, OPM-2, CTG at 72h): 6 nM
inhibition of proliferation of OPM-2 cells (OPM-2 cells; dose dependent manner, FIG. 1.B): inhibited proliferation
IC50 values in the AR(+) cell lines [1]: submicromolar
IC50 (MM1.S cells; Homo sapiens, MM1.S, CTG at 96h): 2 nM
inhibition of proliferation of MM1.S cells (MM1.S cells; dose dependent manner, FIG. 1.A): inhibited proliferation
IC50 [2]: 500 nM
Max % Inh [2]: 87%
IC50 [3]: 560 nM
Max % Inh [3]: 85%
expression of c-MYC mRNA relative to GAPDH [4, 5]: strongly down-regulated; also recorded: down-regulated
relative expression of MYB mRNA [4, 5]: down-regulated
relative expression of c-MYC protein ([4]; Western blot, 2, 4, 6, 8, 16 and 24 hours): down-regulated
IC50 (BRD4 BD1): 62.2 nM
Max % Inh (DU-145 cells, AR(−)): 55%
IC50 (DU-145 cells, AR(−); Homo sapiens): 1880 nM

— US20160368919A1, “NOVEL PYRIDINE PYRAZINONES AS BET-FAMILY BROMODOMAIN INHIBITORS” (Pfizer Inc., priority 2015, published 2016)
